# Data published in patent US20250032629A1, “NOVEL NUCLEOLIN-BINDING PEPTIDE AND USE THEREOF” (ANYGEN CO., LTD., priority 2020, published 2025).
# Tests used:
# MDA-MB-231-luc cells = assay: Tumor suppression in breast cancer xenograft model; assay type: in vivo, NPG mice; details: for average tumor volume: tail vein
# Experimental: FIG. 14B is a schematic representation of the experimental protocol. Here, anesthetized 6-week-old […] NPG mice were inoculated with a 1:1 mix of Matrigel and 1×10^6 MDA-MB-231-luc cells into the mammary fat pad. […] Nuclei were stained with DAPI (blue), and the scale bar is 50 μm. Bar graphs represent the mean±SD, and statistical analyses were performed by one-way ANOVA with Dunnett's multiple comparison. *, **, and *** indicate P<0.05, P<0.01, and P<0.001, respectively. […]
# All animal experiments were performed in accordance with IACUC guidelines (GIST-2019-040). For tumorigenesis experiments, anesthetized 6-week-old female NOD-scid Il2rg^−/− mice (NPG™, VITALSTAR) were inoculated in the mammary fat pad with 1×10^6 MDA-MB-231-luc cells in a volume of 100 μl (n=5˜6 for each group). After tumor cell inoculation, when the tumor volume reached approximately 100 mm^3, the mice were randomly divided into the following five groups: (i) control, (ii) low-dose paclitaxel (2 mg/kg), (iii) high-dose paclitaxel (10 mg/kg), (iv) AGM-330 (16.68 mg/kg or 8.34 mg/kg), and (v) AGM-330-PTX (19.05 mg/kg or 10.71 mg/kg). The tumor size was measured twice a week, and the tumor volume was calculated with the following formula:
# For the bioluminescent imaging experiment, D-luciferin (150 mg/kg; PerkinElmer) was intraperitoneally injected into each mouse, and an IVIS 100 imaging system (Xenogen, Corporation, Alameda, CA) was used for bioluminescent monitoring. Mice were anesthetized with vaporized isoflurane (BK Pharm, Ilsan, Korea) and placed in an imaging chamber. After 10 min, each animal was imaged with an exposure time of 1 min. All bioluminescent image data were provided by Living Image software (version 4.5.2, PerkinElmer). Photons detected from tumors were converted to average radiance values (photon/see/cm^2/sr), which are quantitative data obtained from a region of intensity (ROI) and include the photons emitted by bioluminescent cells from an assigned rectangular area over the whole body of each mouse.
# Following in vitro proliferation analysis on cancer lines, the present inventors investigated whether AGM-330t-PTX could be a potential therapeutic agent in vivo. The present inventors inoculated MDA-MB-231-luc cells into the mammary fat pad of NPG mice. After the subcutaneous tumors grew to 100 mm^3, comparative efficacy studies were performed by dividing the animals into five groups (n=5/group) treated with vehicle (PBS), AGM-330t (16.68 mg/kg), PTX (2 or 10 mg/kg, respectively) or AGM-330t-PTX (19.05 mg/kg) twice a week by tail vein injection (FIG. 14B). Tumor growth was monitored by measuring volumes twice a week with a caliber rule over the course of 3 weeks.
# The present inventors also performed histological staining of the excised tumors, and an independent pathologist evaluated the slides.
# MCF-10A cells = assay: Cell proliferation assay (WST-1), AGM-330-PTX; assay type: cell-based; details: Homo sapiens, 48 h
smiles,measurement,setting,value
"CC(=O)O[C@H]1C(=O)[C@@]2(C)[C@H]([C@H](OC(=O)c3ccccc3)[C@]3(O)C[C@H](OC(=O)[C@H](O)[C@@H](NC(=O)c4ccccc4)c4ccccc4)C(C)=C1C3(C)C)[C@]1(OC(C)=O)CO[C@@H]1C[C@@H]2O [PTX, Paclitaxel, reference compound]",average tumor volume,"MDA-MB-231-luc cells; 2 mg/kg twice a week, n=5",1671±199 mm^3
same,final average tumor weight,"MDA-MB-231-luc cells; 2 mg/kg, n=5",2.1 ± 0.4 g
same,average tumor volume,"MDA-MB-231-luc cells; 10 mg/kg twice a week, day 21, n=5",988±78 mm^3
same,final average tumor weight,"MDA-MB-231-luc cells; 10 mg/kg, n=5",1.5 ± 0.1 g
same,IC50,MCF-10A cells,22.1 µM
